Assay type in all cases: functional, Mus musculus
Test [1] relates to B16. Nature of the test: Evaluated for anticancer activity in survival tumor system B16 melanocarcinoma at a dose of 6.25 mg/kg, value was reported as weight difference.
Test [2] relates to P388. Put plainly: Evaluated for anticancer activity in survival tumor system P388 lymphocytic leukemia at a dose of 100 mg/kg; Number of Tested survived/number of control survived (5/6).
A short description of test [3]: Evaluated for anticancer activity in tumor inhibition system colon 38 tumors at a dose of 100 mg/kg; Number of Tested survived/number of control survived (10/10).
In test [4] the test system is L1210. Nature of the test: Evaluated for anticancer activity in survival tumor system L1210 lymphoid leukemia at a dose of 3.125 mg/kg; Number of Tested survived/number of control survived (6/6).

The values that follow come from ChEMBL document CHEMBL1122789, “Synthesis and biological activity of structural analogues of the anticancer benzophenanthridine alkaloid nitidine chloride” (1984).

`COc1cc2c[n+](C)c3c(c2cc1OC)Cc1cc2c(cc1-3)OCO2.[Cl-]` registered a Weight change in test [1] of -0.5. Moreover, the Survival in test [2] is listed as 5; in test [3], 10; in test [4], 6.
